Reference: article PMC9278656 (Journal of medicinal chemistry, 2021)
Where a name gives a salt, the structure may show the parent alone.

Experiments:
p53^R175H = assay: Immunofluorescence with conformation-specific antibodies PAB1620/PAB240; type: cell-based
Ionophore activity = settings: larger number indicates weaker ionophore activity
Caco-2 permeability = type: in vitro ADME; settings: human
TOV-112D (p53^R175H) = assay: Cell growth inhibition assay; type: cell-based; settings: Homo sapiens, TOV112D, 72 h, read-out: EC50 TOV-112D
[1] = tested on: p53 wild type and p53 null cell lines; assay: Cell kill in p53 wild type and p53 null cell lines; type: cell-based; settings: allele selectivity, Suppl. Figure S1
[2] = cited from earlier work
Human hERG = Human hERG (Homo sapiens, UniProt Q12809); assay: CEREP safety screen, hERG [3H]-dofetilide; type: binding; settings: 10 μM
[3] = target: Human Norepinephrine Transporter (Homo sapiens, UniProt P23975); assay: CEREP safety screen, norepinephrine transporter; type: binding; settings: 10 μM
H1299 cells (p53 null) = assay: Oxidative stress detection, CellROX Green, flow cytometry; type: cell-based; settings: 0.75 μM compound, 24 h, relative to ZMC1

Sequence of Human hERG (Q12809 whole entry): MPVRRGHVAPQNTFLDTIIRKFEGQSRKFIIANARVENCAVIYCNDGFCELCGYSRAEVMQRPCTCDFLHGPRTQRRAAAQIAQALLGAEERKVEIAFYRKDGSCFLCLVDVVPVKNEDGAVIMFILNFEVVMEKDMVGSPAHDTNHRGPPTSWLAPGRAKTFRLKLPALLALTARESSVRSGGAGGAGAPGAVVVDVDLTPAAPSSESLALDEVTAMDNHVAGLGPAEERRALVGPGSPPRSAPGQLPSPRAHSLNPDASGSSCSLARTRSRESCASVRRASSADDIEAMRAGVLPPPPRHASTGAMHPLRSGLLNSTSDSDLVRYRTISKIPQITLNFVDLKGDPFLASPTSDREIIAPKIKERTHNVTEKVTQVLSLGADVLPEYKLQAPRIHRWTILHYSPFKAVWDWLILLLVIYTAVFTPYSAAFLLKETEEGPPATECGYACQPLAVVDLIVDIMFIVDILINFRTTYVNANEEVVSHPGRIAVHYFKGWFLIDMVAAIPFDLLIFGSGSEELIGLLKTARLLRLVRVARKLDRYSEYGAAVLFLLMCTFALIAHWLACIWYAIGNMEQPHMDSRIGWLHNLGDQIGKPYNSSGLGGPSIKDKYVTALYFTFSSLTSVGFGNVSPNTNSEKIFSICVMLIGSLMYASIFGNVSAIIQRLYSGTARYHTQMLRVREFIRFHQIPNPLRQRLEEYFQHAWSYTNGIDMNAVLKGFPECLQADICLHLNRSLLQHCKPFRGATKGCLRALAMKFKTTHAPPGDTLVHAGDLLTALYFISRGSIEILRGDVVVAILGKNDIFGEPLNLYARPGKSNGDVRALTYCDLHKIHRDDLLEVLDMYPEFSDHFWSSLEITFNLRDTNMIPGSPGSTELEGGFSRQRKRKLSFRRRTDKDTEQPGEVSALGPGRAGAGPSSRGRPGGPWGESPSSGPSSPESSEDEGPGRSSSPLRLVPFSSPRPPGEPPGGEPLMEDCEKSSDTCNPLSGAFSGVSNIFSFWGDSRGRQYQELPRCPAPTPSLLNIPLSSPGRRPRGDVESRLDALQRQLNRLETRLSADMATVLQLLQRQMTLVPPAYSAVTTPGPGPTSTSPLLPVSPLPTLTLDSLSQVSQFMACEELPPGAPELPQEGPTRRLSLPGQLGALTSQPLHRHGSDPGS
Sequence of Human Norepinephrine Transporter (P23975 whole entry): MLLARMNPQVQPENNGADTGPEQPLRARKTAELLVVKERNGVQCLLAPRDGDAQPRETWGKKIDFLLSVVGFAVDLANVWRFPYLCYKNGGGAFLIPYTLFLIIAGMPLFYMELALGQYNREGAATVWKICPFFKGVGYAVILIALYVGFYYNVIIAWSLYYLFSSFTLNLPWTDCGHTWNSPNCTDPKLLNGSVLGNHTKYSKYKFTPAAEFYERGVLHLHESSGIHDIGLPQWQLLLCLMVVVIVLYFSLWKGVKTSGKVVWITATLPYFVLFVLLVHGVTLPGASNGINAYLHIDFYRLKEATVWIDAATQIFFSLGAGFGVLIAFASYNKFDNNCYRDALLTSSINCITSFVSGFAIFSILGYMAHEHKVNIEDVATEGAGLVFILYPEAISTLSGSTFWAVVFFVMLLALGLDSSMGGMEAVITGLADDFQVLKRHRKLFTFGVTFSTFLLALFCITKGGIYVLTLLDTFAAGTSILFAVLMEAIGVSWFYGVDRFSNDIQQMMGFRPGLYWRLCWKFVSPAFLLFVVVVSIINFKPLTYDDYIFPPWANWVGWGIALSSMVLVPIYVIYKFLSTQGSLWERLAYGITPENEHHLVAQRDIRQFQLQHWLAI

Row | SMILES | Refolding p53^R175H → wild type (p53^R175H) | Ionophore Ji drug/Ji DMSO (Ionophore activity) | other results
1 | C/C(=N\NC(=S)N(C)C)c1ccccn1 [A1, (E)-N,N-Dimethyl-2-(1-(pyridin-2-yl)ethylidene)hydrazine-1-carbothioamide] | YES | 12.8 -log[mol/m^2s] | Papp at 90 min, 5 μM (Caco-2 permeability): 7.3 ± 0.1 ×10⁻⁶ cm/s
2 | C/C(=N\NC(=S)NC1CCN(c2ccccn2)CC1)c1ccccn1 [A4, (E)-2-(1-(Pyridin-2-yl)ethylidene)-N-(1-(pyridin-2-yl)piperidin-4-yl)hydrazine-1-carbothioamide] | – | 14.5 -log[mol/m^2s] | –
3 | CS/C(=N\N=C(/C)c1ccccn1)N1CCC1 [A5, Methyl (Z)-N-((E)-1-(Pyridin-2-yl)ethylidene)azetidine-1-carbohydrazonothioate] | – | 12.4 -log[mol/m^2s] | –
4 | C/C(=N\NC(=O)N1CCC1)c1ccccn1 [A6, (E)-N′-(1-(Pyridin-2-yl)ethylidene)azetidine-1-carbohydrazide] | – | 12.9 -log[mol/m^2s] | –
5 | C/C(=N\NC(=S)N1CCC1)c1ccccc1 [A9, (E)-N′-(1-Phenylethylidene)azetidine-1-carbothiohydrazide] | – | 11.6 -log[mol/m^2s] | –
6 | C/C(=N\NC(=S)N1CCC1)c1cnccn1 [A10, (E)-N′-(1-(Pyrazin-2-yl)ethylidene)azetidine-1-carbothiohydrazide] | YES | 11.8 -log[mol/m^2s] | EC50 (TOV-112D (p53^R175H)): 22 nM
7 | C/C(=N\NC(=S)N1CCC1)c1cccc(C)n1 [A11, (E)-N′-(1-(6-Methylpyridin-2-yl)ethylidene)azetidine-1-carbothiohydrazide] | YES | 12.6 -log[mol/m^2s] | –
8 | C/C(=N\NC(=S)N1CCC1)c1ncccc1C [A12, (E)-N′-(1-(3-Methylpyridin-2-yl)ethylidene)azetidine-1-carbothiohydrazide] | – | 11.6 -log[mol/m^2s] | EC50 (TOV-112D (p53^R175H)): 11 nM
9 | CC(C)(C)/C(=N\NC(=S)N1CCC1)c1ccccn1 [A13, (E)-N′-(2,2-Dimethyl-1-(pyridin-2-yl)propylidene)azetidine-1-carbothiohydrazide] | – | 14.4 -log[mol/m^2s] | –
10 | C/C(=N\NC(=S)N1CCC1)c1cc(N(C)C)ccn1 [A14, (E)-N′-(1-(4-(Dimethylamino)pyridin-2-yl)ethylidene)azetidine-1-carbothiohydrazide] | – | 12.5 -log[mol/m^2s] | –
11 | C/C(=N\Nc1nc2ccccc2o1)c1ccccn1 [C2, (E)-2-(2-(1-(Pyridin-2-yl)ethylidene)hydrazinyl)benzo[d]oxazole] | induced a wild-type conformational change and YES | 11.8 -log[mol/m^2s] | Papp at 90 min, 5 μM (Caco-2 permeability): 10.6 ± 0.5 ×10⁻⁶ cm/s; Cell kill in p53 wild type and p53 null cell lines [1]: almost no cell kill; Aqueous solubility [2]: low aqueous solubility
12 | C/C(=N\Nc1nc2ccccc2n1C)c1ccccn1 [C9, (E)-1-Methyl-2-(2-(1-(pyridin-2-yl)ethylidene)hydrazinyl)-1H-benzo[d]imidazole] | YES | 11.6 -log[mol/m^2s] | hERG inhibition, in words (Human hERG): strong hERG inhibition; Aqueous solubility [2]: low aqueous solubility
13 | C/C(=N\Nc1nc2ccccc2s1)c1cc(N(C)C)ccn1 [C21, (E)-2-(1-(2-(Benzo[d]thiazol-2-yl)hydrazineylidene)ethyl)-N,N-dimethylpyridin-4-amine] | YES | 11.6 -log[mol/m^2s] | –
14 | C/C(=N\Nc1ccc2ccccc2n1)c1ccccn1 [C22, (E)-2-(2-(1-(Pyridin-2-yl)ethylidene)hydrazineyl)quinoline] | YES | 11.6 -log[mol/m^2s] | –
15 | COCCOc1ccc2nc(N/N=C(\C)c3ccccn3)sc2c1 [C23, (E)-6-(2-Methoxyethoxy)-2-(2-(1-(pyridin-2-yl)ethylidene)hydrazineyl)benzo[d]thiazole AcOH] | YES | 11.6 -log[mol/m^2s] | –
16 | C/C(=N\Nc1nc2ccccc2n1CCN(C)C)c1ccccn1 [C27, (E)-N,N-Dimethyl-2-(2-(2-(1-(pyridin-2-yl)ethylidene)hydrazineyl)-1H-benzo[d]imidazol-1-yl)ethan-1-amine HCl] | YES | 11.6 -log[mol/m^2s] | –
17 | C/C(=N\Nc1nc2ccccc2s1)c1cc(OCCN(C)C)ccn1 [C28, (E)-2-((2-(1-(2-(Benzo[d]thiazol-2-yl)hydrazineylidene)ethyl)pyridin-4-yl)oxy)-N,N-dimethylethan-1-amine HCl] | YES | 11.6 -log[mol/m^2s] | hERG inhibition, in words (Human hERG): strong hERG inhibition; Activity against the norepinephrine transporter, in words [3]: showed activity
18 | C/C(=N\Nc1nc2ccccc2o1)c1cc(OCCN(C)C)ccn1 [C35, (E)-2-((2-(1-(2-(Benzo[d]oxazol-2-yl)hydrazineylidene)ethyl)pyridin-4-yl)oxy)-N,N-dimethylethan-1-amine HCl] | YES | – | –
19 | C/C(=N\Nc1nc2ccccc2n1CCN1CCOCC1)c1ccccn1 [C42, (E)-4-(2-(2-(2-(1-(Pyridin-2-yl)ethylidene)hydrazineyl)-1H-benzo[d]imidazol-1-yl)ethyl)morpholine HCl] | YES | 11.6 -log[mol/m^2s] | ROS (ROS/ZMC1 ROS) (H1299 cells (p53 null)): 1.0; hERG inhibition, in words (Human hERG): strong hERG inhibition
20 | C/C(=N\Nc1nc2ccccc2s1)c1cc(OCCO)ccn1 [C61, (E)-2-((2-(1-(2-(Benzo[d]thiazol-2-yl)hydrazineylidene)ethyl)pyridin-4-yl)oxy)ethan-1-ol] | – | 11.6 -log[mol/m^2s] | –
21 | C/C(=N\Nc1nc2ccccc2s1)c1cc(OCCN2CCN(C)CC2)ccn1 [C64, (E)-2-(2-(1-(4-(2-(4-Methylpiperazin-1-yl)ethoxy)pyridin-2-yl)ethylidene)hydrazineyl)benzo[d]thiazole HCl] | – | 11.6 -log[mol/m^2s] | –
22 | COC/C(=N\Nc1nc2ccccc2s1)c1ccccn1 [C65, (Z)-2-(2-(2-Methoxy-1-(pyridin-2-yl)ethylidene)hydrazineyl)benzo[d]thiazole] | YES | 11.6 -log[mol/m^2s] | –
23 | C/C(=N\Nc1nc2ccccc2s1)c1ncccn1 [C77, (E)-2-(2-(1-(Pyrimidin-2-yl)ethylidene)hydrazineyl)benzo[d]thiazole AcOH] | – | 11.8 -log[mol/m^2s] | Activity against the norepinephrine transporter, in words [3]: showed activity
24 | C/C(=N\Nc1nccn1C)c1ccccn1 [C78, 2-(1-(2-(1-Methyl-1H-imidazol-2-yl)hydrazono)ethyl)pyridine HCl] | YES | 11.8 -log[mol/m^2s] | –
25 | C/C(=N\Nc1nc2ccccc2n1C)c1ncccn1 [C89, (E)-1-Methyl-2-(2-(1-(pyrimidin-2-yl)ethylidene)hydrazineyl)-1H-benzo[d]imidazole HCl] | – | 12.0 -log[mol/m^2s] | hERG inhibition, in words (Human hERG): strong hERG inhibition
